Measurements as given in article PMC11284792, “Backbone-Determined Antiarrhythmic Structure–Activity Relationships for a Mirror Image, Oligomeric Depsipeptide Natural Product” (Journal of Medicinal Chemistry, 2024).
“Also recorded” adds a separate entry of the source. Read-outs that look alike come from different tables or passages of the source.

Assays:
[1] = amide bond, 24-membered ring, 3 steps
RyR2 = target: T1, RyR2 (Mus musculus, UniProt E9Q401); assay: Calcium spark assay in saponin-permeabilized ventricular cardiomyocytes; assay type: cell-based, mouse (C57BL/6J); conditions: for Normalized Calcium Leak: CSV supplement, Series 2-5; for Normalized Calcium Leak / Calcium spark Amplitude (normalized to vehicle) / Calcium spark Leak (normalized to vehicle) / Calcium spark Mass (normalized to vehicle) / Calcium spark Frequency (normalized to vehicle): 25 μM drug, normalized to vehicle (DMSO), mean ± standard deviation; for Calcium spark Amplitude (normalized to vehicle) / Calcium spark Leak (normalized to vehicle) / Calcium spark Mass (normalized to vehicle) / Calcium spark Frequency (normalized to vehicle): Supplement Tables 2-3; for Calcium spark Amplitude (normalized to vehicle) / Calcium spark Leak (normalized to vehicle) / Calcium spark Mass (normalized to vehicle): permeabilized murine cardiomyocytes; for Calcium spark Frequency (normalized to vehicle): permeabilized murine left ventricular myocytes, 15 min incubation; for Inhibition of RyR2-mediated calcium sparks (in words): spark frequency after 15 min incubation with 25 μM compound, permeabilized myocytes
T1 construct: ventricular cardiomyocytes were isolated from C57Bl/6J mice, adhered to laminin-coated glass bottom culture dishes, permeabilized with saponin; endogenous in cells; host or cells: left ventricular cardiomyocytes freshly isolated from C57BL/6J mice, saponin-permeabilized
Description: With a wide range of ent-verticilide analogs in hand, organized by five series that systematically change the backbone functionality without modifying the alternating methyl and pentyl side chains, we pursued their evaluation in the calcium sparks assay for insight into potential antiarrhythmic activity.[3] Left ventricular myocytes were isolated from C57BL/6J mice and subjected to brief incubation with saponin, which permeabilizes the sarcolemma and enables equivalent access of compounds to RyR2, irrespective of their permeability.[14] Cardiomyocytes were then incubated in an internal solution designed to promote spontaneous RyR2-mediated calcium release events, known as sparks,[34] and the spark frequency was recorded following a 15 min incubation with 25 μM of each compound. Figure 3 summarizes these findings; no inhibition of RyR2 (lack of activity) is reflected as a value of 1 (dotted line). […] In that study, we noted that the 18-membered oligomer was more forgiving. […] Series 4–5 analogs produced nearly flat SAR, with no notable inhibition by any of the analogs.
Figure 3 RyR2-mediated calcium spark frequency in permeabilized left ventricular myocytes incubated with 25 μM drug for 15 min. All data normalized to vehicle (DMSO) condition. […] (A) *P < 0.0001 vs vehicle. N = 29 (2), 102 (5), 105 (5), 108 (5), 119 (4), and 87 cells (mice). Previously reported in Johnston et al. ACS Med. Chem. Lett., 2022, 13(11), 1755–1762. (B) *P < 0.0001 vs vehicle. # P = 0.00041 vs vehicle. N = 38, 46, 54, 50, and 50 cells, respectively, from 2 mice. (C) *P < 0.0001 vs vehicle. # P = 0.034 vs vehicle. N = 79 (4), 58 (3), 79 (4), 80 (5), and 91 (5) cells (mice). (D) P > 0.05 for all groups vs vehicle. N = 66 (4), 42 (2), 37 (2), 38 (2), 43(2), and 37 (2) cells (mice). (E) *P < 0.0001 vs vehicle. N = 66 (4), 85 (5), 93 (5), 100 (5), 89 (5), and 67 (4) cells (mice).
Calcium spark measurements were made, as previously described.[5] Briefly, ventricular cardiomyocytes were isolated from C57Bl/6J mice, adhered to laminin-coated glass bottom culture dishes, permeabilized with saponin, and incubated with an internal solution containing the calcium sensitive dye, Fluo-4. Elementary spark recordings were made using an Olympus inverted microscope equipped with a solid-state diode laser at 488 nm for excitation, 40× silicone objective (1.25 NA), and Hamamatsu CMOS camera for detection. Spark detection analysis was performed using SparkMaster2.[37]
Statistical analysis was carried out in R using a hierarchical clustering model to cluster data by experiment and account for mouse-to-mouse variability.[38] A cutoff value of 0.05 was used as the threshold to reject the null hypothesis. The numbers of cells and replicates (mice) are indicated in the figure legend for each compound.
Johnston et al. Supporting Information […]
of 0.05 was used as the threshold to reject the null hypothesis.
Safety: No unexpected or unusually high safety hazards were encountered.
Biological Experiment Data: Calcium spark parameters
For all series, assay is run with 25 μM solution of drug. Values are normalized to the vehicle (DMSO) condition and reported as mean ± standard deviation. Statistical comparisons were made using a hierarchical clustering model with Bonferroni correction. Adjusted p-values < 0.05 vs vehicle are indicated with an asterisk. Each mouse was an independent experiment, the replicates are listed as n (cells).
Supplement Table 1. Calcium spark parameters from murine cardiomyocytes for ent-verticilide and series 1 analogs.
Supplement Table 2. Calcium spark parameters from murine cardiomyocytes for series 2 analogs.
Supplement Table 3. Calcium spark parameters from murine cardiomyocytes for series 3 analogs. […]
Cardiovasc. Res.

[2] = the molecule shown is the open-chain precursor

T1 sequence (E9Q401 whole entry): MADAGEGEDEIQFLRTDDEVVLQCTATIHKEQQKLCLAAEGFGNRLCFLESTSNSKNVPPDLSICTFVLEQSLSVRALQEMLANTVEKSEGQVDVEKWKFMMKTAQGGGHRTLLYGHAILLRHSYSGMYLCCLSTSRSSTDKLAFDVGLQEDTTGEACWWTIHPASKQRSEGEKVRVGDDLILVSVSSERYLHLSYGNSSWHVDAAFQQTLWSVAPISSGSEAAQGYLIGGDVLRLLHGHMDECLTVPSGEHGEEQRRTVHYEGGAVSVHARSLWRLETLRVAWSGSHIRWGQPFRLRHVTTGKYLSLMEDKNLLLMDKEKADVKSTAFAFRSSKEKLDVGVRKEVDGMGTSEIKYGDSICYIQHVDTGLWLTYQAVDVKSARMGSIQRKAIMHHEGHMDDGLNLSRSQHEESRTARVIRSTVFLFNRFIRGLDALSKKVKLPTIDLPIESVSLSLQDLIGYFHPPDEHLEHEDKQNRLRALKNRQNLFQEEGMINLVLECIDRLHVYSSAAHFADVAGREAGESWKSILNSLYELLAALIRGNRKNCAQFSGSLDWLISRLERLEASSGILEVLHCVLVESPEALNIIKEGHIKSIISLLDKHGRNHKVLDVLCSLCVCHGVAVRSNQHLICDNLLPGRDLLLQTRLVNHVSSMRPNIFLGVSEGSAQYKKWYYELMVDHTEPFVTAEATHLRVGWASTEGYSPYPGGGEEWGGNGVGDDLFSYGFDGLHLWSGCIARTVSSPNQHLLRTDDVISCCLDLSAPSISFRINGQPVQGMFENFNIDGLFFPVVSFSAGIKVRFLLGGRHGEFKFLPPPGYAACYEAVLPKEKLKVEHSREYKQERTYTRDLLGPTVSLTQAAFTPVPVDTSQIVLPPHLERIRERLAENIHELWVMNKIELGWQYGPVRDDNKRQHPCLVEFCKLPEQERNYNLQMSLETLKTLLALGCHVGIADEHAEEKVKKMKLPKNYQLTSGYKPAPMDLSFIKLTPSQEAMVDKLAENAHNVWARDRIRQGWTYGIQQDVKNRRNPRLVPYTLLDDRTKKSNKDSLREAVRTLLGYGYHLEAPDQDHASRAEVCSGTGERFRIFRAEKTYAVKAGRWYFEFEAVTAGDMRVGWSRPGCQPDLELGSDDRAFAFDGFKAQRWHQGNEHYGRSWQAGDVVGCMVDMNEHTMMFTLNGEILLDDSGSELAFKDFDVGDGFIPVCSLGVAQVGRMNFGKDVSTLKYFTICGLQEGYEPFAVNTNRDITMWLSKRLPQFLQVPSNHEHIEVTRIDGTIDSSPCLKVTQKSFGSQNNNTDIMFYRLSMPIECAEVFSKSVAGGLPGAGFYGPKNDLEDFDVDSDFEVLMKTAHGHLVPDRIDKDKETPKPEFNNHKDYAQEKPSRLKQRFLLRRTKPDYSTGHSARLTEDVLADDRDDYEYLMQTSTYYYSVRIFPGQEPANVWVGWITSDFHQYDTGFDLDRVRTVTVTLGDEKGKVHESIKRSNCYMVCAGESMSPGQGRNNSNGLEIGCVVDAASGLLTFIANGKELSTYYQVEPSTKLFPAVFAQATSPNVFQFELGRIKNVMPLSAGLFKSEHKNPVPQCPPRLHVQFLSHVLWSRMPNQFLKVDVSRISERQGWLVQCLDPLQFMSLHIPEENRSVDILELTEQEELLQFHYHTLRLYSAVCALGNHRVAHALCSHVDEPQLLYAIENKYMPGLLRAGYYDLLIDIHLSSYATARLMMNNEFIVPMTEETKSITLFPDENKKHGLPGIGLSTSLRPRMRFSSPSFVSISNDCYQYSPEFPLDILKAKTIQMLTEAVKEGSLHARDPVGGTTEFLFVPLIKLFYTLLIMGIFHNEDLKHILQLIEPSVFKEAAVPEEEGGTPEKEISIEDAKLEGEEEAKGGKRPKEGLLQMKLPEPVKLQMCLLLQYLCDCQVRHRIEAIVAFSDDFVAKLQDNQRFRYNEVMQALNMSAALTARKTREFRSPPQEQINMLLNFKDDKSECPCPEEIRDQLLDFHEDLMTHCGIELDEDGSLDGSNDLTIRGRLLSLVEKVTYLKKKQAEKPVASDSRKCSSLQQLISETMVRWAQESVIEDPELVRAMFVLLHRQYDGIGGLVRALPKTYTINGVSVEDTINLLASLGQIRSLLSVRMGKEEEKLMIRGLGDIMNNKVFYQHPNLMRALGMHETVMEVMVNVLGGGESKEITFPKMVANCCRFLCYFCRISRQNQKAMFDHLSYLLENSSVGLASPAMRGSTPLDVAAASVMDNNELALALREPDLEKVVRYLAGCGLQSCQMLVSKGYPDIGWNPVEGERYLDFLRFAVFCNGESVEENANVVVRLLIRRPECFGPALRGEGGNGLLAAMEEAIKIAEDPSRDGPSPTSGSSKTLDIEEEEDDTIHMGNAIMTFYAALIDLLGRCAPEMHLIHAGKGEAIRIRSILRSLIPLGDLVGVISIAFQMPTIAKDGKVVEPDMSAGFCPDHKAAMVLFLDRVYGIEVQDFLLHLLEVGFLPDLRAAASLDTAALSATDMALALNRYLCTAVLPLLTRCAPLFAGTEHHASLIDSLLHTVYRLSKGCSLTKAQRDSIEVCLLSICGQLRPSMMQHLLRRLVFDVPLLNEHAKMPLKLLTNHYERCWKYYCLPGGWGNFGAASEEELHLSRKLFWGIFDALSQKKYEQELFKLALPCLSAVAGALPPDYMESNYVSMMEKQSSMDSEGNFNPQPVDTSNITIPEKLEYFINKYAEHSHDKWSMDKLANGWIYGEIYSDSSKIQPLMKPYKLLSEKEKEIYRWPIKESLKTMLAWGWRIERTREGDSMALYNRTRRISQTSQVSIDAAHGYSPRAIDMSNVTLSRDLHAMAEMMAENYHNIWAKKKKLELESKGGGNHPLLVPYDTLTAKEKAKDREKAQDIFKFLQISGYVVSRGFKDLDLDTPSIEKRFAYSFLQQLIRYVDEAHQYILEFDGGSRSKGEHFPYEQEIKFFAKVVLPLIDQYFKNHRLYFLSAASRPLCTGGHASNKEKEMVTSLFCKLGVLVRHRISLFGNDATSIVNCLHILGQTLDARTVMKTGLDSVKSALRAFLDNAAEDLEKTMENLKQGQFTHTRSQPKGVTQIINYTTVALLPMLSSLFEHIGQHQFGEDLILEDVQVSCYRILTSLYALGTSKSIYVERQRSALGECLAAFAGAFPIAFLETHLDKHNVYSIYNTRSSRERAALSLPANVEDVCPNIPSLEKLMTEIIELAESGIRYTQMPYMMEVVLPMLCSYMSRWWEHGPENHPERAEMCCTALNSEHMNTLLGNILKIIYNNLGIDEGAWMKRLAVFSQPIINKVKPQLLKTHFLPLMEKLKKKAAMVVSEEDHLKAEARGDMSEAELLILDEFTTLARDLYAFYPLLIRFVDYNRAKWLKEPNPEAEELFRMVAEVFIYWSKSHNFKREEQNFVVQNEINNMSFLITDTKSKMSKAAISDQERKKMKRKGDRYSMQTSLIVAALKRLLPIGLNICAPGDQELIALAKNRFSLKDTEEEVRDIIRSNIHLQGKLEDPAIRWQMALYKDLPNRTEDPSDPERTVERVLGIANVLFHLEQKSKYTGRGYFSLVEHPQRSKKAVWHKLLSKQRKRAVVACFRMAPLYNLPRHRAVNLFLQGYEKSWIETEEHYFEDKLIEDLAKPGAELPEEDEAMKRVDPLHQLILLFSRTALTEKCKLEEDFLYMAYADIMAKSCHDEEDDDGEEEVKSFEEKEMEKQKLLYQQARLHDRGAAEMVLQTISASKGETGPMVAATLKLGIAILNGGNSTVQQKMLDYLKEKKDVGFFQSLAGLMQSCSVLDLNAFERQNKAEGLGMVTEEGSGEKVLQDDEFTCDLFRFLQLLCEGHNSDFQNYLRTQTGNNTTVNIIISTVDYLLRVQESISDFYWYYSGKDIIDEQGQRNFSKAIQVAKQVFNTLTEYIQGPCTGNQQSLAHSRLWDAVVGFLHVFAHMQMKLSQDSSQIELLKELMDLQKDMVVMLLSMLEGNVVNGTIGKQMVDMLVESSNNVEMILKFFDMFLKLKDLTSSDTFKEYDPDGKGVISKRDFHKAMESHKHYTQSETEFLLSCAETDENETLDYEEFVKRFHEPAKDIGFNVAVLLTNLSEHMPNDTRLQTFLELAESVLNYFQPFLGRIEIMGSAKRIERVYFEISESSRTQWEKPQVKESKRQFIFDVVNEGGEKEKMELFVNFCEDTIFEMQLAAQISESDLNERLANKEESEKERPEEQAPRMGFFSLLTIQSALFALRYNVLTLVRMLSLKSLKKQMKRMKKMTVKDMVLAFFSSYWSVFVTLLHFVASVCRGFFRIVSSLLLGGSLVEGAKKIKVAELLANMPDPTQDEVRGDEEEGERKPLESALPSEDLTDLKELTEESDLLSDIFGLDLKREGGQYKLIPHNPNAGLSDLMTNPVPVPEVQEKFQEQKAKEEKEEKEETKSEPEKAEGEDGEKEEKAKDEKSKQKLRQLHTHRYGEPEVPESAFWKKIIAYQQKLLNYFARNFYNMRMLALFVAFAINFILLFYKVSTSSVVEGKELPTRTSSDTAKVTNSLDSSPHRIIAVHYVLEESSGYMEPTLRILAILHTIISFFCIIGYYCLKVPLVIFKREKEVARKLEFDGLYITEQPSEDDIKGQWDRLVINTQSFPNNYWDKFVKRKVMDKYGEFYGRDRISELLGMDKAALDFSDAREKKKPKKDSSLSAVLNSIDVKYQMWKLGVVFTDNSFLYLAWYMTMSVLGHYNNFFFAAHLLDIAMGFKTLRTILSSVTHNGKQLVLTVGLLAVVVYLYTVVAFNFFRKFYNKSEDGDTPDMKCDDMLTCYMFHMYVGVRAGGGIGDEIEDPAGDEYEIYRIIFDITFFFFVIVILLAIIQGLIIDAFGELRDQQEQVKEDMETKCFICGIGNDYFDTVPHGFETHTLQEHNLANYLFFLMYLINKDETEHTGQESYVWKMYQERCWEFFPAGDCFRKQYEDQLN

Substance: H-dAla-Hhp-dAla-MeAhp-dAla-Hhp-dAla-MeAhp-OH?
- ring closure, yield after HPLC [1, 2]: 6%

Substance: H-dMeAla-MeAhp-dMeAla-MeAhp-dMeAla-MeAhp-dMeAla-Ahp-OH?
- ring closure, yield after HPLC [1, 2]: 5%

Substance: H-dMeAla-MeAhp-dMeAla-MeAhp-dMeAla-MeAhp-dMeAla-Hhp-OH?
- ring closure, yield after HPLC [1, 2]: 16%

Substance: (3R,6S,9R,12S,15R,18S,21R,24S)-3,4,9,10,15,16,21,22-octamethyl-6,12,18,24-tetrapentyl-1,7,13-trioxa-4,10,16,19,22-pentaazacyclotetracosan-2,5,8,11,14,17,20,23-octaone [2.1]
- Normalized Calcium Leak (RyR2): 0.60 ± 0.65
- Calcium spark Amplitude (normalized to vehicle) (RyR2): 0.93 ± 0.31
- Calcium spark Leak (normalized to vehicle) (RyR2): 0.60 ± 0.65
- Calcium spark Mass (normalized to vehicle) (RyR2): 1.04 ± 0.64
- Calcium spark Frequency (normalized to vehicle) (RyR2): 0.51 ± 0.25
- Inhibition of RyR2-mediated calcium sparks (in words) (RyR2): modest potency; also recorded: measurable activity

Substance: (3R,6S,9R,12S,15R,18S,21R,24S)-3,4,9,10,15,16,19,21,22-nonamethyl-6,12,18,24-tetrapentyl-1,7,13-trioxa-4,10,16,19,22-pentaazacyclotetracosan-2,5,8,11,14,17,20,23-octaone
- ring closure, yield after HPLC ([1]; PyBOP/DIPEA, DMF, 3.6 mM): 5.1%

Substance: H-dMeAla-Hhp-dMeAla-Hhp-dMeAla-Hhp-dMeAla-Ahp-OH
- ring closure, yield after HPLC [1, 2]: 6%

Substance: H-dMeAla-Hhp-dAla-Hhp-dAla-Hhp-dAla-Hhp-OH
- ring closure, yield after HPLC [1, 2]: 23%

Substance: H-dMeAla-Hhp-dMeAla-Hhp-dMeAla-MeAhp-dMeAla-MeAhp-OH
- ring closure, yield after HPLC [1, 2]: 4%

Substance: (3R,6S,9R,12S,15R,18S,21R,24S)-1,3,7,9,13,15,19,21-octamethyl-6,12,18,24-tetrapentyl-1,4,7,10,13,16,19,22-octaazacyclotetracosan-2,5,8,11,14,17,20,23-octaone [4.6]
- Normalized Calcium Leak (RyR2): 1.15 ± 0.71

Substance: H-dMeAla-MeAhp-dMeAla-MeAhp-dMeAla-Ahp-dMeAla-Ahp-OH?
- ring closure, yield after HPLC [1, 2]: 6%

Substance: H-dAla-Hhp-dMeAla-Hhp-dMeAla-Hhp-dMeAla-Hhp-OH
- ring closure, yield after HPLC ([1]; the molecule shown is the open-chain precursor, PyBOP): 18%

Substance: H-dAla-Hhp-dAla-Hhp-dAla-Hhp-dAla-Hhp-OH
- ring closure, yield after HPLC [1, 2]: 12%

Substance: H-dMeAla-MeAhp-dAla-MeAhp-dAla-MeAhp-dAla-MeAhp-OH
- ring closure, yield after HPLC [1, 2]: 5%

Substance: (3S,6R,9S,12R,15S,18R,21S,24R)-1,4,6,7,10,12,13,16,18,19,24-undecamethyl-3,9,15,21-tetrapentyl-1,4,7,10,13,16,19,22-octaazacyclotetracosan-2,5,8,11,14,17,20,23-octaone [5.2]
- Normalized Calcium Leak (RyR2): 1.08 ± 0.66

Substance: (3R,6S,9R,12S,15R,18S,21R,24S)-1,3,4,7,9,10,13,15,16,19,21-undecamethyl-6,12,18,24-tetrapentyl-1,4,7,10,13,16,19,22-octaazacyclotetracosan-2,5,8,11,14,17,20,23-octaone [4.2]
- Normalized Calcium Leak (RyR2): 1.35 ± 1.14

Substance: (3S,6R,9S,12R,15S,18R,21S,24R)-1,4,6,7,12,13,16,18,19,24-decamethyl-3,9,15,21-tetrapentyl-1,4,7,10,13,16,19,22-octaazacyclotetracosan-2,5,8,11,14,17,20,23-octaone [5.4]
- Normalized Calcium Leak (RyR2): 1.14 ± 0.69

Substance: (3S,6R,9S,12R,15S,18R,21S,24R)-1,4,6,7,10,12,13,18,19,24-decamethyl-3,9,15,21-tetrapentyl-1,4,7,10,13,16,19,22-octaazacyclotetracosan-2,5,8,11,14,17,20,23-octaone [5.3]
- Normalized Calcium Leak (RyR2): 1.23 ± 0.57

Substance: (3R,6S,9R,12S,15R,18S,21R,24S)-1,3,4,7,9,13,15,19,21-nonamethyl-6,12,18,24-tetrapentyl-1,4,7,10,13,16,19,22-octaazacyclotetracosan-2,5,8,11,14,17,20,23-octaone [4.5]
- Normalized Calcium Leak (RyR2): 1.43 ± 0.66

Substance: (3S,6R,9S,12R,15S,18R,21S,24R)-1,6,7,12,13,18,19,24-Octamethyl-3,9,15,21-tetrapentyl-1,4,7,10,13,16,19,22-octaazacyclotetracosan-2,5,8,11,14,17,20,23-octaone [2.5]
- Normalized Calcium Leak (RyR2): 1.09 ± 0.46
- Calcium spark Amplitude (normalized to vehicle) (RyR2): 1.17 ± 0.34
- Calcium spark Leak (normalized to vehicle) (RyR2): 1.09 ± 0.46
- Calcium spark Mass (normalized to vehicle) (RyR2): 1.06 ± 0.35
- Calcium spark Frequency (normalized to vehicle) (RyR2): 1.04 ± 0.20

Substance: (3R,6S,9R,12S,15R,18S,21R,24S)-3,4,7,9,10,15,16,19,21,22-decamethyl-6,12,18,24-tetrapentyl-1,13-dioxa-4,7,10,16,19,22-hexaazacyclotetracosan-2,5,8,11,14,17,20,23-octaone [3.3]
- Normalized Calcium Leak (RyR2): 0.93 ± 0.45
- Calcium spark Amplitude (normalized to vehicle) (RyR2): 1.00 ± 0.16
- Calcium spark Leak (normalized to vehicle) (RyR2): 0.93 ± 0.45
- Calcium spark Mass (normalized to vehicle) (RyR2): 0.96 ± 0.42
- Calcium spark Frequency (normalized to vehicle) (RyR2): 0.96 ± 0.26

Substance: (3R,6S,9R,12S,15R,18S,21R,24S)-3,4,9,10,15,16,21,22-octamethyl-6,12,18,24-tetrapentyl-1-oxa-4,7,10,13,16,19,22-heptaazacyclotetracosan-2,5,8,11,14,17,20,23-octaone [2.4]
- Normalized Calcium Leak (RyR2): 0.97 ± 0.56
- Calcium spark Amplitude (normalized to vehicle) (RyR2): 1.08 ± 0.22
- Calcium spark Leak (normalized to vehicle) (RyR2): 0.97 ± 0.56
- Calcium spark Mass (normalized to vehicle) (RyR2): 0.98 ± 0.39
- Calcium spark Frequency (normalized to vehicle) (RyR2): 0.97 ± 0.17

Substance: (3R,6S,9R,12S,15R,18S,21R,24S)-3,4,9,10,15,16,21,22-octamethyl-6,12,18,24-tetrapentyl-1,13-dioxa-4,7,10,16,19,22-hexaazacyclotetracosan-2,5,8,11,14,17,20,23-octaone [2.3]
- Normalized Calcium Leak (RyR2): 1.03 ± 0.53
- Calcium spark Amplitude (normalized to vehicle) (RyR2): 0.92 ± 0.19
- Calcium spark Leak (normalized to vehicle) (RyR2): 1.03 ± 0.53
- Calcium spark Mass (normalized to vehicle) (RyR2): 1.02 ± 0.43
- Calcium spark Frequency (normalized to vehicle) (RyR2): 1.01 ± 0.20

Substance: (3R,6S,9R,12S,15R,18S,21R,24S)-3,4,9,10,15,16,19,21,22-nonamethyl-6,12,18,24-tetrapentyl-1,7,13-trioxa-4,10,16,19,22-pentaazacyclotetracosan-2,5,8,11,14,17,20,23-octaone [3.1]
- Normalized Calcium Leak (RyR2): 0.75 ± 0.63
- Calcium spark Amplitude (normalized to vehicle) (RyR2): 0.99 ± 0.20
- Calcium spark Leak (normalized to vehicle) (RyR2): 0.75 ± 0.63
- Calcium spark Mass (normalized to vehicle) (RyR2): 0.81 ± 0.55
- Calcium spark Frequency (normalized to vehicle) (RyR2): 0.79 ± 0.29
- Inhibition of RyR2-mediated calcium sparks (in words) (RyR2): partial inhibition, but less so than analog 2.1; also recorded: measurable activity

Substance: (3S,6R,9S,12R,15S,18R,21S,24R)-1,4,6,7,12,13,18,19,24-nonamethyl-3,9,15,21-tetrapentyl-1,4,7,10,13,16,19,22-octaazacyclotetracosan-2,5,8,11,14,17,20,23-octaone [5.5]
- Normalized Calcium Leak (RyR2): 1.14 ± 0.65

Substance: (3R,6S,9R,12S,15R,18S,21R,24S)-3,4,9,10,13,15,16,19,21,22-decamethyl-6,12,18,24-tetrapentyl-1,7-dioxa-4,10,13,16,19,22-hexaazacyclotetracosan-2,5,8,11,14,17,20,23-octaone [3.2]
- Normalized Calcium Leak (RyR2): 0.99 ± 0.53
- Calcium spark Amplitude (normalized to vehicle) (RyR2): 1.02 ± 0.20
- Calcium spark Leak (normalized to vehicle) (RyR2): 0.99 ± 0.53
- Calcium spark Mass (normalized to vehicle) (RyR2): 1.03 ± 0.50
- Calcium spark Frequency (normalized to vehicle) (RyR2): 0.97 ± 0.28
